# Data as given in PubChem BioAssay (NCI).
#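 The compound was tested at five concentrations on cells cultured in 96-well plates, with a 48-hour exposure period. The concentration for 50% growth inhibition is given as GI50. TGI marks complete inhibition of growth.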
# How the values were obtained:
# Experiment in all cases: NCI anticancer screen, dose series, 48 h
# [1] = system: HCT-15 colon
# [2] = system: HL-60(TB) leukemia
# [3] = system: HOP-62 NSCLC
# [4] = system: SF-295 CNS
# [5] = system: IGROV1 ovarian
# [6] = system: MDA-N
# [7] = system: HS 578T breast
SMILES,TGI [1] [µM],TGI [2] [µM],TGI [3] [µM],TGI [4] [µM],TGI [5] [µM],TGI [6] [µM],GI50 [7] [µM],TGI [7] [µM],GI50 [1] [µM],GI50 [2] [µM],GI50 [5] [µM]
CC1CN=C(NS(=O)(=O)c2cc(C(=O)Nc3ccc(Cl)cc3)c(Cl)cc2S)NN1 (configuration not stated),> 100,> 100,> 100,> 100,> 100,> 100,–,–,–,–,–
CN(C)c1ccc(/C=C/c2ccc(S(N)(=O)=O)cc2)cc1,74.1,> 100,36.6,46.8,33.4,> 100,3.03,12.6,17.1,> 100,13.4
COC(=O)c1c(C(=O)OC)c2ccccn2c1-c1cc(OC)c(Br)c(=O)o1,> 100,> 100,> 100,> 100,> 100,> 100,–,> 100,–,–,–
CCOC(=O)NN(C(=O)OCC)C(C(=O)C1=CCCCC1)N(NC(=O)OCC)C(=O)OCC,> 100,–,> 100,> 100,> 100,> 100,–,> 100,–,–,–
CCCCCCCCCCCCOP(=O)(O)OP(=O)(O)OCC1OC(n2ccc(N)nc2=O)CC1O (configuration not stated),> 100,> 100,> 100,> 100,> 100,> 100,–,> 100,–,–,–
N#CC1(C#N)NC(c2ccccc2)C(C#N)(C#N)NC1c1ccccc1 (configuration not stated),> 100,> 100,> 100,> 100,> 100,> 100,–,> 100,–,–,–
CC(=O)Nc1ccc2nc(-c3ccccn3)c(-c3ccccn3)nc2c1,> 100,> 100,–,> 100,> 100,> 100,–,> 100,–,–,–
Nc1ccc2[nH]c(-c3cccc(C(F)(F)F)c3)cc(=O)c2c1,> 100,–,> 100,–,> 100,–,–,65.6,–,–,–
CC1(C)[C@@H]2C[C@H]1[C@@H](Cc1cccc(C[C@H]3c4cc(-c5ccccn5)ncc4[C@H]4C[C@@H]3C4(C)C)c1)c1cc(-c3ccccn3)ncc12,> 100,4.33,> 100,> 100,> 53.3,> 100,–,–,–,–,–
COc1ccccc1Cc1ccc(C2C=CC3(CC(=O)C=C3C)C(=O)C2)o1 (configuration not stated),81.4,41.7,50.3,65.9,> 100,44.2,–,68.7,–,–,–
COc1cc(C)c(/C=C2/N=C(c3ccccc3)OC2=O)c([N+](=O)[O-])c1OC,> 100,> 100,> 100,> 100,> 100,> 100,–,–,–,–,–
Oc1ccc([C@H]2c3c(O)cc(O)cc3C3c4c(cc(O)cc4[C@@H]2[C@H]2c4cc(O)cc5c4C(c4cc(O)cc(O)c4[C@@H]2c2ccc(O)cc2)[C@@H](c2ccc(O)cc2)O5)O[C@@H]3c2ccc(O)cc2)cc1 (some centres not stated),> 100,> 100,> 100,> 100,> 100,> 100,–,> 100,–,–,–
COc1ccc(/C=C2/CSCC3=C2NC(=S)NC3c2ccc(OC)c(OC)c2OC)c(OC)c1OC (configuration not stated),> 100,> 100,47.9,> 100,44.7,–,–,> 100,–,–,–
Cc1cc(Cl)nc2nc(Cl)c(N)cc12,4.6,–,19,29.9,22.9,3.63,–,> 24.3,–,–,–
CCOC(=O)CC(c1ccccc1)C(C)(C(=O)OCC)C(=O)OCC (configuration not stated),> 100,> 100,> 100,> 100,> 100,–,–,> 100,–,–,–
CCOC(=O)C(NC(=O)c1ccccc1)(Nc1ccc(S(=O)(=O)Nc2ncccn2)cc1)C(F)(F)F (configuration not stated),> 100,> 100,> 100,> 100,> 100,> 100,–,> 100,–,–,–
c1cc(-c2ccc(-c3ccc(-c4ccc(-c5ccncc5)o4)cc3)o2)ccn1,28.3,43.5,55.3,30.9,35.8,31.1,–,> 100,–,–,–
Clc1cccc(-c2sc(-c3ccsc3)cc2Cc2ccsc2)c1,> 10,> 10,> 10,> 10,> 10,> 10,–,–,–,–,–
COC(=O)N1CC(=O)C(C(=O)NC23CC4CC(CC(C4)C2)C3)C1 (configuration not stated),> 100,> 100,–,> 100,> 100,> 100,–,–,–,–,–
COc1cc2c(c(OC)c1OC)C(=O)[C@@H]1[C@H]2N1C(=O)NCCCl,> 100,> 100,> 100,> 100,> 100,> 100,–,> 100,–,–,–
Cc1ccc(C(=O)Nc2ccc(CP(=O)(O)O)cc2)cc1NC(=O)c1cccc(N)c1,> 100,> 100,> 100,> 100,> 100,> 100,–,> 100,–,–,–
NC(N)=NS(=O)(=O)c1ccc(N/N=C2/CCOC2=O)cc1,> 100,> 100,77.8,> 100,> 100,> 100,–,> 100,–,–,–
Cc1nc(SCC(=O)Nc2ccc(Cl)cc2)c2sc(=S)n(-c3ccccc3)c2n1,> 10,> 10,> 10,> 10,> 10,> 10,–,> 10,–,–,–
NS(=O)(=O)c1nnc(NC(=O)C23CC4CC(CC(C4)C2)C3)s1,> 100,–,> 100,> 100,–,> 100,–,> 100,–,–,–
NNC(=O)CC(=O)Nc1cccc(Cl)c1,> 100,> 100,> 100,> 100,> 100,> 100,–,> 100,–,–,–
S=C(NCCc1ccccn1)N/N=C/c1ccccn1,> 100,< 0.01,0.0696,> 100,0.634,> 100,–,> 100,–,–,–
CC(=O)Oc1cc(S(=O)(=O)Nc2n[nH]c(Nc3ccc(C)cc3)n2)c(S)cc1Cl,> 100,> 100,–,> 100,> 100,> 100,–,> 100,–,–,–
Cc1cc(S(=O)(=O)N2CCNNC2=O)c(S)cc1Cl,> 100,> 100,–,> 100,> 100,> 100,–,> 100,–,–,–
